{"source": "the NIST ThermoML archive (doi:10.1021/je3010535)", "assay": "Henry's Law constant (molality scale); of the first substance listed, at infinite dilution; mn = molality of the nth substance listed, in mol/kg", "conditions": "Liquid, Chromatography, m1 = 0", "note": "Values joined by “and” are separate entries in the source; they are usually repeats but may differ in a detail not shown here. Equal entries are not always repeated. Numbers after ± are expanded uncertainties.", "data": [{"smiles": "ClCC(Cl)(Cl)Cl", "note": "[1,1,1,2-tetrachloroethane] + O", "values": [{"measurement": "Henry's Law constant", "setting": "274.15 K", "result": "60.3 ± 18", "unit": "kPa·kg/mol"}, {"measurement": "Henry's Law constant", "setting": "294.65 K", "result": "184 kPa·kg/mol and 168 kPa·kg/mol"}, {"measurement": "Henry's Law constant", "setting": "296.15 K", "result": "199 ± 60", "unit": "kPa·kg/mol"}, {"measurement": "Henry's Law constant", "setting": "310.15 K", "result": "388 ± 120", "unit": "kPa·kg/mol"}, {"measurement": "Henry's Law constant", "setting": "326.15 K", "result": "832 ± 250", "unit": "kPa·kg/mol"}, {"measurement": "Henry's Law constant", "setting": "331.15 K", "result": "1090 ± 330", "unit": "kPa·kg/mol"}]}, {"smiles": "ClCC(Cl)Cl", "note": "[1,1,2-trichloroethane] + O", "values": [{"measurement": "Henry's Law constant", "setting": "274.15 K", "result": "16.9 ± 5.1", "unit": "kPa·kg/mol"}, {"measurement": "Henry's Law constant", "setting": "294.65 K", "result": "62 kPa·kg/mol and 60.4 kPa·kg/mol"}, {"measurement": "Henry's Law constant", "setting": "296.15 K", "result": "65 ± 20", "unit": "kPa·kg/mol"}, {"measurement": "Henry's Law constant", "setting": "310.15 K", "result": "148 ± 44", "unit": "kPa·kg/mol"}, {"measurement": "Henry's Law constant", "setting": "320.15 K", "result": "263 ± 79", "unit": "kPa·kg/mol"}, {"measurement": "Henry's Law constant", "setting": "331.15 K", "result": "419 ± 130", "unit": "kPa·kg/mol"}]}, {"smiles": "Clc1ccc(Cl)c(Cl)c1", "note": "[1,2,4-trichlorobenzene] + O", "values": [{"measurement": "Henry's Law constant", "setting": "274.15 K", "result": "26.9 ± 11", "unit": "kPa·kg/mol"}, {"measurement": "Henry's Law constant", "setting": "294.65 K", "result": "75.2 kPa·kg/mol and 81.4 kPa·kg/mol"}, {"measurement": "Henry's Law constant", "setting": "296.15 K", "result": "83.2 ± 33", "unit": "kPa·kg/mol"}, {"measurement": "Henry's Law constant", "setting": "310.15 K", "result": "148 ± 59", "unit": "kPa·kg/mol"}, {"measurement": "Henry's Law constant", "setting": "320.15 K", "result": "260 ± 100", "unit": "kPa·kg/mol"}, {"measurement": "Henry's Law constant", "setting": "326.15 K", "result": "730 ± 290", "unit": "kPa·kg/mol"}, {"measurement": "Henry's Law constant", "setting": "331.15 K", "result": "425 ± 170", "unit": "kPa·kg/mol"}]}, {"smiles": "Cc1ccc(C)c(C)c1", "note": "[1,2,4-trimethylbenzene] + O", "values": [{"measurement": "Henry's Law constant", "setting": "274.15 K", "result": "82.9 ± 33", "unit": "kPa·kg/mol"}, {"measurement": "Henry's Law constant", "setting": "294.65 K", "result": "235 kPa·kg/mol and 255 kPa·kg/mol"}, {"measurement": "Henry's Law constant", "setting": "296.15 K", "result": "292 ± 120", "unit": "kPa·kg/mol"}, {"measurement": "Henry's Law constant", "setting": "310.15 K", "result": "497 ± 200", "unit": "kPa·kg/mol"}, {"measurement": "Henry's Law constant", "setting": "313.15 K", "result": "974 ± 390", "unit": "kPa·kg/mol"}, {"measurement": "Henry's Law constant", "setting": "326.15 K", "result": "1770 ± 710", "unit": "kPa·kg/mol"}, {"measurement": "Henry's Law constant", "setting": "331.15 K", "result": "1390 ± 550", "unit": "kPa·kg/mol"}]}, {"smiles": "BrCCBr", "note": "[1,2-dibromoethane] + O", "values": [{"measurement": "Henry's Law constant", "setting": "274.15 K", "result": "12.7 ± 3.8", "unit": "kPa·kg/mol"}, {"measurement": "Henry's Law constant", "setting": "294.65 K", "result": "54.1 kPa·kg/mol and 41.2 kPa·kg/mol"}, {"measurement": "Henry's Law constant", "setting": "296.15 K", "result": "57.8 ± 17", "unit": "kPa·kg/mol"}, {"measurement": "Henry's Law constant", "setting": "310.15 K", "result": "130 ± 39", "unit": "kPa·kg/mol"}, {"measurement": "Henry's Law constant", "setting": "320.15 K", "result": "218 ± 66", "unit": "kPa·kg/mol"}, {"measurement": "Henry's Law constant", "setting": "331.15 K", "result": "333 ± 100", "unit": "kPa·kg/mol"}]}, {"smiles": "Cc1ccccc1C", "note": "[1,2-dimethylbenzene] + O", "values": [{"measurement": "Henry's Law constant", "setting": "274.15 K", "result": "96.1 ± 29", "unit": "kPa·kg/mol"}, {"measurement": "Henry's Law constant", "setting": "294.65 K", "result": "281 kPa·kg/mol and 291 kPa·kg/mol"}, {"measurement": "Henry's Law constant", "setting": "296.15 K", "result": "318 ± 95", "unit": "kPa·kg/mol"}, {"measurement": "Henry's Law constant", "setting": "310.15 K", "result": "321 ± 96", "unit": "kPa·kg/mol"}, {"measurement": "Henry's Law constant", "setting": "313.15 K", "result": "781 ± 230", "unit": "kPa·kg/mol"}, {"measurement": "Henry's Law constant", "setting": "326.15 K", "result": "1400 ± 420", "unit": "kPa·kg/mol"}, {"measurement": "Henry's Law constant", "setting": "331.15 K", "result": "1360 ± 410", "unit": "kPa·kg/mol"}]}, {"smiles": "Clc1cccc(Cl)c1", "note": "[1,3-dichlorobenzene] + O", "values": [{"measurement": "Henry's Law constant", "setting": "274.15 K", "result": "50.3 ± 20", "unit": "kPa·kg/mol"}, {"measurement": "Henry's Law constant", "setting": "294.65 K", "result": "160 kPa·kg/mol and 164 kPa·kg/mol"}, {"measurement": "Henry's Law constant", "setting": "296.15 K", "result": "185 ± 74", "unit": "kPa·kg/mol"}, {"measurement": "Henry's Law constant", "setting": "310.15 K", "result": "309 ± 120", "unit": "kPa·kg/mol"}, {"measurement": "Henry's Law constant", "setting": "313.15 K", "result": "552 ± 220", "unit": "kPa·kg/mol"}, {"measurement": "Henry's Law constant", "setting": "320.15 K", "result": "519 ± 210", "unit": "kPa·kg/mol"}, {"measurement": "Henry's Law constant", "setting": "326.15 K", "result": "967 ± 390", "unit": "kPa·kg/mol"}, {"measurement": "Henry's Law constant", "setting": "331.15 K", "result": "768 ± 310", "unit": "kPa·kg/mol"}]}, {"smiles": "ClCCCCl", "note": "[1,3-dichloropropane] + O", "values": [{"measurement": "Henry's Law constant", "setting": "274.15 K", "result": "18.8 ± 5.6", "unit": "kPa·kg/mol"}, {"measurement": "Henry's Law constant", "setting": "294.65 K", "result": "65 kPa·kg/mol and 65.9 kPa·kg/mol"}, {"measurement": "Henry's Law constant", "setting": "296.15 K", "result": "70.6 ± 21", "unit": "kPa·kg/mol"}, {"measurement": "Henry's Law constant", "setting": "310.15 K", "result": "156 ± 47", "unit": "kPa·kg/mol"}, {"measurement": "Henry's Law constant", "setting": "320.15 K", "result": "287 ± 86", "unit": "kPa·kg/mol"}, {"measurement": "Henry's Law constant", "setting": "331.15 K", "result": "421 ± 130", "unit": "kPa·kg/mol"}]}, {"smiles": "Cc1cccc(C)c1", "note": "[1,3-dimethylbenzene] + O", "values": [{"measurement": "Henry's Law constant", "setting": "274.15 K", "result": "147 ± 59", "unit": "kPa·kg/mol"}, {"measurement": "Henry's Law constant", "setting": "294.65 K", "result": "381 kPa·kg/mol and 439 kPa·kg/mol"}, {"measurement": "Henry's Law constant", "setting": "296.15 K", "result": "457 ± 180", "unit": "kPa·kg/mol"}, {"measurement": "Henry's Law constant", "setting": "313.15 K", "result": "1170 ± 470", "unit": "kPa·kg/mol"}, {"measurement": "Henry's Law constant", "setting": "326.15 K", "result": "2090 ± 840", "unit": "kPa·kg/mol"}, {"measurement": "Henry's Law constant", "setting": "331.15 K", "result": "1810 ± 730", "unit": "kPa·kg/mol"}]}, {"smiles": "Clc1ccc(Cl)cc1", "note": "[1,4-dichlorobenzene] + O", "values": [{"measurement": "Henry's Law constant", "setting": "274.15 K", "result": "52.8 ± 21", "unit": "kPa·kg/mol"}, {"measurement": "Henry's Law constant", "setting": "294.65 K", "result": "136 kPa·kg/mol and 149 kPa·kg/mol"}, {"measurement": "Henry's Law constant", "setting": "296.15 K", "result": "160 ± 64", "unit": "kPa·kg/mol"}, {"measurement": "Henry's Law constant", "setting": "310.15 K", "result": "263 ± 110", "unit": "kPa·kg/mol"}, {"measurement": "Henry's Law constant", "setting": "313.15 K", "result": "476 ± 190", "unit": "kPa·kg/mol"}, {"measurement": "Henry's Law constant", "setting": "320.15 K", "result": "451 ± 180", "unit": "kPa·kg/mol"}, {"measurement": "Henry's Law constant", "setting": "326.15 K", "result": "804 ± 320", "unit": "kPa·kg/mol"}, {"measurement": "Henry's Law constant", "setting": "331.15 K", "result": "686 ± 270", "unit": "kPa·kg/mol"}]}, {"smiles": "Cc1ccc(C)cc1", "note": "[1,4-dimethylbenzene] + O", "values": [{"measurement": "Henry's Law constant", "setting": "274.15 K", "result": "147 ± 59", "unit": "kPa·kg/mol"}, {"measurement": "Henry's Law constant", "setting": "294.65 K", "result": "381 kPa·kg/mol and 439 kPa·kg/mol"}, {"measurement": "Henry's Law constant", "setting": "296.15 K", "result": "457 ± 180", "unit": "kPa·kg/mol"}, {"measurement": "Henry's Law constant", "setting": "313.15 K", "result": "1170 ± 470", "unit": "kPa·kg/mol"}, {"measurement": "Henry's Law constant", "setting": "326.15 K", "result": "2090 ± 840", "unit": "kPa·kg/mol"}, {"measurement": "Henry's Law constant", "setting": "331.15 K", "result": "1810 ± 730", "unit": "kPa·kg/mol"}]}, {"smiles": "CCCCC(C)=O", "note": "[2-hexanone] + O", "values": [{"measurement": "Henry's Law constant", "setting": "274.15 K", "result": "0.551 ± 0.17", "unit": "kPa·kg/mol"}, {"measurement": "Henry's Law constant", "setting": "294.65 K", "result": "4.89 kPa·kg/mol and 5.91 kPa·kg/mol"}, {"measurement": "Henry's Law constant", "setting": "296.15 K", "result": "7.07 ± 2.1", "unit": "kPa·kg/mol"}, {"measurement": "Henry's Law constant", "setting": "310.15 K", "result": "17.9 ± 5.4", "unit": "kPa·kg/mol"}, {"measurement": "Henry's Law constant", "setting": "320.15 K", "result": "48.2 ± 14", "unit": "kPa·kg/mol"}, {"measurement": "Henry's Law constant", "setting": "331.15 K", "result": "122 ± 36", "unit": "kPa·kg/mol"}, {"measurement": "Henry's Law constant", "setting": "333.15 K", "result": "136 ± 41", "unit": "kPa·kg/mol"}]}]}
